Measured values taken from ChEMBL document CHEMBL1833824, “Effects of cyclization on stability, structure, and activity of α-conotoxin RgIA at the α9α10 nicotinic acetylcholine receptor and GABA(B) receptor” (J Med Chem, 2011).
pIC50: −log10 of the molar value. Bridge positions count the residues as written; N and C are the ends. Square brackets hold non-standard residues; d marks the D form. Peptide text beside a SMILES is read from it. Hyp = O=C(O)[C@@H]1C[C@@H](O)CN1

Tests used:
[1] = Inhibition of GABA-B receptor-mediated high voltage-activated Ca2+ channel current in Wistar rat DRG neurons by whole-cell patch clamp assay; settings: DRG neuron
Oocyte = assay: Inhibition of human alpha-9/rat alpha-10 nACHR expressed in Xenopus oocytes assessed as inhibition of acetylcholine-induced current by voltage clamp assay relative to RgIA; assay type: cell-based; settings: dose or concentration not given here

With `N=C(N)NCCC[C@@H]1NC(=O)[C@H](Cc2ccc(O)cc2)NC(=O)[C@H](CCCNC(=N)N)NC(=O)[C@@H]2CSSC[C@H](NC(=O)CN)C(=O)N[C@@H](CSSC[C@@H](C(=O)O)NC1=O)C(=O)N[C@@H](CO)C(=O)N[C@@H](CC(=O)O)C(=O)N1C[C@H](O)C[C@H]1C(=O)N[C@@H](CCCNC(=N)N)C(=O)N2` (H-GCCSD[Hyp]RCRYRC-OH; disulfide 2-8, 3-12) the pIC50 [1] was 7.69 and the inhibition (Oocyte) was 41%.
